Reference: patent US11440910B2, “Pesticidally active heterocyclic derivatives with sulfur containing substituents” (SYNGENTA PARTICIPATIONS AG, priority 2017, dated 2022)

Experiments:
Format in all cases: in vivo
[1] = system: Plutella xylostella (Diamond back moth); assay: Example B3: Plutella xylostella, artificial diet; settings: 120 h, application rate 200 ppm, L2 larvae, 5 days after infestation, read-out: effect in at least one of the two categories (mortality or growth inhibition)
Protocol: Example B3: Plutella Xylostella (Diamond Back Moth)
(§1) 24-well microtiter plates with artificial diet were treated with aqueous test solutions prepared from 10′000 ppm DMSO stock solutions by pipetting. After drying, the plates were infested with L2 larvae (10 to 15 per well). The samples were assessed for mortality and growth inhibition in comparison to untreated samples 5 days after infestation.

[2] = system: Euschistus heros (Neotropical brown stink bug); assay: Example B8: Euschistus heros, soybean leaves sprayed; settings: 120 h, application rate 200 ppm, N2 nymphs, 5 days after infestation, read-out: effect in at least one of the two categories (mortality or growth inhibition)
Protocol: Example B8: Euschistus Heros (Neotropical Brown Stink Bug)
Soybean leaves on agar in 24-well microtiter plates were sprayed with aqueous test solutions prepared from 10′000 ppm DMSO stock solutions. After drying the leaves were infested with N2 nymphs. The samples were assessed for mortality and growth inhibition in comparison to untreated samples 5 days after infestation.

[3] = system: Diabrotica balteata (Corn root worm); assay: Example B4: Diabrotica balteata, maize sprouts sprayed; settings: 96 h, application rate 200 ppm, L2 larvae, 4 days after infestation, read-out: effect in at least one of the two categories (mortality or growth inhibition)
Protocol: Example B4: Diabrotica Balteata (Corn Root Worm)
as §1, with “Maize sprouts placed onto an agar layer in 24-well” for “24-well”, “plates” for “plates with artificial diet”, “spraying.” for “pipetting.”, “(6” for “(10”, “10” for “15”, “4” for “5”

[4] = system: Myzus persicae (Green peach aphid); assay: Example B5: Myzus persicae, sunflower leaf discs sprayed; settings: foliar, 144 h, application rate 200 ppm, mixed ages, 6 days after infestation
Protocol: Example B5: Myzus Persicae (Green Peach Aphid)
Sunflower leaf discs were placed onto agar in a 24-well microtiter plate and sprayed with aqueous test solutions prepared from 10′000 ppm DMSO stock solutions. After drying, the leaf discs were infested with an aphid population of mixed ages. The samples were assessed for mortality 6 days after infestation.

[5] = system: Myzus persicae (Green peach aphid); assay: Example B6: Myzus persicae, roots of pea seedlings in test solution; settings: 144 h, test rate 24 ppm, mixed ages, 6 days after placing seedlings into test solutions
Protocol: Example B6: Myzus Persicae (Green Peach Aphid)
Roots of pea seedlings infested with an aphid population of mixed ages were placed directly into aqueous test solutions prepared from 10′000 DMSO stock solutions. The samples were assessed for mortality 6 days after placing seedlings into test solutions.

[6] = system: Bemisia tabaci (Cotton white fly); assay: Example B7: Bemisia tabaci, cotton leaf discs sprayed; settings: foliar, 144 h, application rate 200 ppm, adult white flies, 6 days after incubation
Protocol: Example B7: Bemisia Tabaci (Cotton White Fly)
Cotton leaf discs were placed on agar in 24-well microtiter plates and sprayed with aqueous test solutions prepared from 10′000 ppm DMSO stock solutions. After drying the leaf discs were infested with adult white flies. The samples were checked for mortality 6 days after incubation.

Compound	percent effect (mortality or growth inhibition) at 200 ppm [1] [%]	percent effect (mortality or growth inhibition) at 200 ppm [2] [%]	percent effect (mortality or growth inhibition) at 200 ppm [3] [%]	mortality at 200 ppm [4] [%]	mortality at 24 ppm [5] [%]	mortality at 200 ppm [6] [%]
CCOC(=O)C(C)(C#N)c1cnc(-c2nc3cc(C(F)(F)F)ncc3n2C)c(S(=O)(=O)CC)c1 (centres unmarked) [Compound P9, ethyl 2-cyano-2-[5-ethylsulfonyl-6-[3-methyl-6-(trifluoromethyl)imidazo[4,5-c]pyridin-2-yl]-3-pyridyl]propanoate]	≥ 80	≥ 80				
CCC(C#N)c1cnc(-c2nc3cc(C(F)(F)F)ncc3n2C)c(S(=O)(=O)CC)c1 (centres unmarked) [Compound P4, 2-[5-ethylsulfonyl-6-[3-methyl-6-(trifluoromethyl)imidazo[4,5-c]pyridin-2-yl]-3-pyridyl]butanenitrile]	≥ 80		≥ 80	≥ 80		
CCS(=O)(=O)c1cc(C(C#N)C(C)C)cnc1-c1nc2cc(C(F)(F)F)ncc2n1C (centres unmarked) [Compound P10, 2-[5-ethylsulfonyl-6-[3-methyl-6-(trifluoromethyl)imidazo[4,5-c]pyridin-2-yl]-3-pyridyl]-3-methyl-butanenitrile]	≥ 80		≥ 80	≥ 80	≥ 80	
CCS(=O)(=O)c1cc(C(C)C#N)cnc1-c1nc2cc(C(F)(F)F)ncc2n1C (centres unmarked) [Compound P6, 2-[5-ethylsulfonyl-6-[3-methyl-6-(trifluoromethyl)imidazo[4,5-c]pyridin-2-yl]-3-pyridyl]propanenitrile]		≥ 80	≥ 80		≥ 80	
CCC(C#N)(CC)c1cnc(-c2nc3cc(C(F)(F)F)ncc3n2C)c(S(=O)(=O)CC)c1 [Compound P3, 2-ethyl-2-[5-ethylsulfonyl-6-[3-methyl-6-(trifluoromethyl)imidazo[4,5-c]pyridin-2-yl]-3-pyridyl]butanenitrile]	≥ 80		≥ 80			
CCSc1cc(C(C)(C)C#N)ccc1-c1nc2cc(C(F)(F)F)nnc2n1C [Compound P11, 2-[3-ethylsulfanyl-4-[7-methyl-3-(trifluoromethyl)imidazo[4,5-c]pyridazin-6-yl]phenyl]-2-methyl-propanenitrile]		≥ 80	≥ 80			≥ 80
CCSc1cc(C(C)(C)C#N)ccc1-c1nc2cc(C(F)(F)F)ncc2n1C [Compound P16, 2-[3-ethylsulfanyl-4-[3-methyl-6-(trifluoromethyl)imidazo[4,5-c]pyridin-2-yl]phenyl]-2-methyl-propanenitrile]		≥ 80	≥ 80			
CCSc1cc(C(C)C#N)ccc1-c1nc2cc(C(F)(F)F)nnc2n1C (centres unmarked) [Compound P13, 2-[3-ethylsulfanyl-4-[7-methyl-3-(trifluoromethyl)imidazo[4,5-c]pyridazin-6-yl]phenyl]propanenitrile]		≥ 80				
CCS(=O)(=O)c1cc(C(F)(F)C#N)cnc1-c1nc2cc(C(F)(F)F)ncc2n1C [Compound P15, 2-[5-ethylsulfonyl-6-[3-methyl-6-(trifluoromethyl)imidazo[4,5-c]pyridin-2-yl]-3-pyridyl]-2,2-difluoro-acetonitrile]		≥ 80	≥ 80	≥ 80	≥ 80	
CCS(=O)(=O)c1cc(C(C)(C)C#N)cnc1-c1nc2cc(Br)ncc2n1C [Compound P19, 2-[6-(6-bromo-3-methyl-imidazo[4,5-c]pyridin-2-yl)-5-ethylsulfonyl-3-pyridyl]-2-methyl-propanenitrile]		≥ 80			≥ 80	
